What was measured:
[1] = molecular target: T1, DNA-polymerase processivity factor (β-ring) from Escherichia coli (Escherichia coli, UniProt P0A988); assay: Isothermal titration calorimetry (ITC) of peptide binding to the E. coli β-ring; conditions: βE.coli
Experimental: We used an iTC200 from Microcal (now Microcal-Malvern, UK) operated in the high-gain mode. […] In short, the β -rings were initially in the cell at concentrations ranging from 20 to 60 μM and the peptides were in the syringe at concentrations ranging from 200 to 600 μM. The buffer was Hepes 10 mM, pH 7.4, supplemented with NaCl 150 mM and EDTA 3 mM. Experiments were performed at different temperatures from 15 to 34 °C.
The processing of the ITC data was first performed with the same model as the one used for ESI-MS (one specific binding site per monomer). […] The advantage of this still unusual method is of fitting several titration curves with a minimum set of free parameters. All K d values obtained by ITC were corrected for 22.5 °C, which was the incubation temperature used in ESI-MS experiments. This was performed by using the Van’t Hoff equation: ∂ ln K d/∂T = − ΔH/(RT ^2), where ΔH is the variation of enthalpy during complex formation and R = 8.314 J mol^−1 K^−1 the gas constant. Note that such a correction is quite justified for K d values obtained by ITC since the primary output from ITC is precisely the enthalpic term ΔH governing the evolution of K d with the temperature.
This competition model requires determining a fixed fraction f 1 of the protein monomers binding their ligand according to a dissociation constant K d1 and an enthalpy variation ΔH 1, and a fixed fraction f 2 = 1 − f 1 binding their ligand according to a dissociation constant K d2 and an enthalpy variation ΔH 2 (we consider K d2 < K d1).

[2] = molecular target: T1, DNA-polymerase processivity factor (β-ring) from Escherichia coli; assay: Native ESI-MS titration of peptide binding to the E. coli β-ring; conditions: βE.coli; processing taking into account separately the species R3
[3] = model with two competing modes of binding on the same site

T1 sequence (P0A988 whole entry, looked up): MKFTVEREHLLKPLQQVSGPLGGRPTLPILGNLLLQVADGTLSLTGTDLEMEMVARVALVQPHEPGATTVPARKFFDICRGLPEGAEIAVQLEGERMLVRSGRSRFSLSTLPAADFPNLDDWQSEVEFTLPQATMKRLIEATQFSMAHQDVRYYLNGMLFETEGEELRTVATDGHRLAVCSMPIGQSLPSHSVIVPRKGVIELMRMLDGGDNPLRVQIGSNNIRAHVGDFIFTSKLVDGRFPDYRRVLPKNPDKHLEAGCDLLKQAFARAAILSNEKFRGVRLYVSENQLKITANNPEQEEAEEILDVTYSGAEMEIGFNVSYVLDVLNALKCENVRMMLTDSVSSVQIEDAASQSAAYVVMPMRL

For `CC(=O)N[C@@H](CCC(N)=O)C(=O)N[C@@H](CC(C)C)C(=O)N[C@@H](CC(=O)O)C(=O)N[C@@H](CC(C)C)C(=O)N[C@@H](Cc1ccccc1)C(=O)O` [P6], the “ΔH1 (ITC), weaker binding mode” value [1, 3] was “≈ 1 kcal mol^−1”, the “ΔH2 (ITC), stronger binding mode” value [1, 3] was “≈ –12 kcal mol^−1” and the “ΔH (ITC), one binding mode” value ([1]; simple model with one binding mode, at 25 °C) was “≈ –11.8 ± 0.2 kcal mol^−1”. The “P, probability of GPD (ESI-MS, Equations 4)” value [2] was 0.0528.

Source: paper PMC5227004, “Native ESI Mass Spectrometry Can Help to Avoid Wrong Interpretations from Isothermal Titration Calorimetry in Difficult Situations” (Journal of the American Society for Mass Spectrometry, 2016)
